Measurements: PubChem BioAssay AID2060348 (Molecular Pharmacology Branch, DTP, NCI, 2025)
Several values for one entry are separate records, joined by “and”; a condition that tells them apart may be missing. Equal entries are not always repeated. Each block holds one compound with its values, some of them ahead of it.

Test system: 885724-159-R-J1-PDC spheroids viability
Experiment: Anticancer human tumor 885724-159-R-J1-PDC patient-derived pancreatic adenocarcinoma cell line growth inhibition [TAK]
Settings: spheroids with HUVEC and MSC; for viability, T/C: stronger effect = lower value
Summary of the method: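 Tumor cells were grown as spheroids with HUVEC and hMSC (60:25:15) and treated with targeted agents combined with TAK-243 or ipatasertib. Drugs were tested in half-log steps down from near the clinical Cmax, or from 10 microM where Cmax was unknown.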
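Further: spheroids exposed to drugs for seven days.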
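Wherever viability, T/C is given: 100% = DMSO vehicle control viability.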

SMILES: Cn1cnc2c(F)c(Nc3ccc(Br)cc3Cl)c(C(=O)NOCCO)cc21 + CC(C)NCC(C(=O)N1CCN(c2ncnc3c2C(C)CC3O)CC1)c1ccc(Cl)cc1
- IC50 (curve of first compound, second compound 0.3 µM): < 9.49 nM
- IC50 (curve of first compound, second compound 0.949 µM): < 9.49 nM
- IC50 (curve of first compound, second compound 3 µM): < 9.49 nM
- IC50 (curve of first compound, second compound 9.49 µM): < 9.49 nM
- IC50 (curve of first compound, second compound 30 µM): < 9.49 nM
- viability, T/C (second compound 0.3 µM, first compound 0.00949 µM): 49.1%
- viability, T/C (second compound 0.3 µM, first compound 0.03 µM): 42.5%
- viability, T/C (second compound 0.3 µM, first compound 0.0949 µM): 29.3%
- viability, T/C (second compound 0.3 µM, first compound 0.3 µM): 24.9%
- viability, T/C (second compound 0.3 µM, first compound 0.949 µM): 18.8%
- viability, T/C (second compound 0.3 µM, first compound 3 µM): 14.1%
- viability, T/C (second compound 0.949 µM, first compound 0.00949 µM): 45.2%
- viability, T/C (second compound 0.949 µM, first compound 0.03 µM): 41.2%
- viability, T/C (second compound 0.949 µM, first compound 0.0949 µM): 30.5%
- viability, T/C (second compound 0.949 µM, first compound 0.3 µM): 22.6%
- viability, T/C (second compound 0.949 µM, first compound 0.949 µM): 16.6%
- viability, T/C (second compound 0.949 µM, first compound 3 µM): 10.3%
- viability, T/C (second compound 3 µM, first compound 0.00949 µM): 42%
- viability, T/C (second compound 3 µM, first compound 0.03 µM): 37.1%
- viability, T/C (second compound 3 µM, first compound 0.0949 µM): 27.5%
- viability, T/C (second compound 3 µM, first compound 0.3 µM): 18.7%
- viability, T/C (second compound 3 µM, first compound 0.949 µM): 12.6%
- viability, T/C (second compound 3 µM, first compound 3 µM): 7.23%
- viability, T/C (second compound 9.49 µM, first compound 0.00949 µM): 36.7%
- viability, T/C (second compound 9.49 µM, first compound 0.03 µM): 27.9%
- viability, T/C (second compound 9.49 µM, first compound 0.0949 µM): 16.8%
- viability, T/C (second compound 9.49 µM, first compound 0.3 µM): 13.7%
- viability, T/C (second compound 9.49 µM, first compound 0.949 µM): 9.53%
- viability, T/C (second compound 9.49 µM, first compound 3 µM): 4.7%
- viability, T/C (second compound 30 µM, first compound 0.00949 µM): 20.5%
- viability, T/C (second compound 30 µM, first compound 0.03 µM): 13.7%
- viability, T/C (second compound 30 µM, first compound 0.0949 µM): 9.15%
- viability, T/C (second compound 30 µM, first compound 0.3 µM): 5.41%
- viability, T/C (second compound 30 µM, first compound 0.949 µM): 3.69%
- viability, T/C (second compound 30 µM, first compound 3 µM): 2.03%

SMILES: COC1CC2CCC(C)C(O)(O2)C(=O)C(=O)N2CCCCC2C(=O)OC(C(C)CC2CCC(OCCO)C(OC)C2)CC(=O)C(C)C=C(C)C(O)C(OC)C(=O)C(C)CC(C)C=CC=CC=C1C (configuration not stated)
- viability, T/C (compound 0.000316 µM): 93.8% and 110%
- viability, T/C (compound 0.001 µM): 91.7% and 92%
- viability, T/C (compound 0.00316 µM): 79.7% and 77%
- viability, T/C (compound 0.01 µM): 69.8% and 72.2%
- viability, T/C (compound 0.0316 µM): 70.2% and 70.8%
- viability, T/C (compound 0.1 µM): 67.6% and 62.2%
- IC50 (curve of compound): > 100 nM

SMILES: CC(C)CC(NC(=O)CNC(=O)c1cc(Cl)ccc1Cl)B1OC(=O)CC(CC(=O)O)(C(=O)O)O1 (configuration not stated)
- viability, T/C (compound 0.000316 µM): 98.6% and 104%
- viability, T/C (compound 0.001 µM): 101% and 96.8%
- viability, T/C (compound 0.00316 µM): 99.5% and 103%
- viability, T/C (compound 0.01 µM): 89.3% and 91.4%
- viability, T/C (compound 0.0316 µM): 19.3% and 15.8%
- viability, T/C (compound 0.1 µM): 1.47% and 1.1%
- IC50 (curve of compound): 19.1 nM and 18.8 nM

Second part, led by results:

- IC50 (curve of compound): 40.9 nM
SMILES: Cn1cnc2c(F)c(Nc3ccc(Br)cc3Cl)c(C(=O)NOCCO)cc21
- viability, T/C (compound 0.00949 µM): 70.7% and 70.3%
- viability, T/C (compound 0.03 µM): 53.1% and 54.5%
- viability, T/C (compound 0.0949 µM): 38.9% and 38.3%
- viability, T/C (compound 0.3 µM): 34.6% and 32.9%
- viability, T/C (compound 0.949 µM): 28.6% and 27.2%
- viability, T/C (compound 3 µM): 21.2% and 21.8%

- IC50 (curve of compound): 4.63 nM and 4.18 nM
SMILES: CC(C)CC(NC(=O)C(Cc1ccccc1)NC(=O)c1cnccn1)B(O)O (configuration not stated)
- viability, T/C (compound 31.6 pM): 114% and 102%
- viability, T/C (compound 0.0001 µM): 105% and 100%
- viability, T/C (compound 0.000316 µM): 104% and 93.8%
- viability, T/C (compound 0.001 µM): 99.3% and 87.3%
- viability, T/C (compound 0.00316 µM): 74.5% and 67.2%
- viability, T/C (compound 0.01 µM): 1.18% and 1.87%

- IC50 (curve of compound): 52.6 nM and 52.9 nM
SMILES: CC(C)n1nc(-c2ccc3oc(N)nc3c2)c2c(N)ncnc21
- viability, T/C (compound 0.000316 µM): 104% and 108%
- viability, T/C (compound 0.001 µM): 103% and 95.1%
- viability, T/C (compound 0.00316 µM): 93.3% and 83.8%
- viability, T/C (compound 0.01 µM): 67.5% and 70.2%
- viability, T/C (compound 0.0316 µM): 54.2% and 51.1%
- viability, T/C (compound 0.1 µM): 46.1% and 46%

- IC50 (curve of compound): > 10000 nM
SMILES: CC(C)(C)c1nc(-c2cccc(NS(=O)(=O)c3c(F)cccc3F)c2F)c(-c2ccnc(N)n2)s1
- viability, T/C (compound 0.0316 µM): 179% and 172%
- viability, T/C (compound 0.1 µM): 262% and 233%
- viability, T/C (compound 0.316 µM): 321% and 254%
- viability, T/C (compound 1 µM): 332% and 269%
- viability, T/C (compound 3.16 µM): 308% and 241%
- viability, T/C (compound 10 µM): 200% and 176%
